ChEMBL document CHEMBL5149998, “Synthetic access to thiolane-based therapeutics and biological activity studies” (Eur J Med Chem, 2021)
≈ marks a conversion by molar mass, not a printed value.

Tests used:
U-937 = experiment: Anticancer activity against human U-937 cells assessed as cell growth inhibition; assay type: functional, cell-based
Staphylococcus aureus = experiment: Antibacterial activity against methicillin resistant Staphylococcus aureus incubated for 24 hrs by broth microdilution method; assay type: functional
[1] = target: Prostaglandin G/H synthase 1 (Homo sapiens, UniProt P23219); experiment: Inhibition of COX-1 (unknown origin) using arachidonic acid as substrate assessed as PGH2 level preincubated for 5 mins followed by substrate addition and measured after 1 min by UHPLC-MS/MS analysis
Prostaglandin G/H synthase 1, sequence (P23219 whole entry): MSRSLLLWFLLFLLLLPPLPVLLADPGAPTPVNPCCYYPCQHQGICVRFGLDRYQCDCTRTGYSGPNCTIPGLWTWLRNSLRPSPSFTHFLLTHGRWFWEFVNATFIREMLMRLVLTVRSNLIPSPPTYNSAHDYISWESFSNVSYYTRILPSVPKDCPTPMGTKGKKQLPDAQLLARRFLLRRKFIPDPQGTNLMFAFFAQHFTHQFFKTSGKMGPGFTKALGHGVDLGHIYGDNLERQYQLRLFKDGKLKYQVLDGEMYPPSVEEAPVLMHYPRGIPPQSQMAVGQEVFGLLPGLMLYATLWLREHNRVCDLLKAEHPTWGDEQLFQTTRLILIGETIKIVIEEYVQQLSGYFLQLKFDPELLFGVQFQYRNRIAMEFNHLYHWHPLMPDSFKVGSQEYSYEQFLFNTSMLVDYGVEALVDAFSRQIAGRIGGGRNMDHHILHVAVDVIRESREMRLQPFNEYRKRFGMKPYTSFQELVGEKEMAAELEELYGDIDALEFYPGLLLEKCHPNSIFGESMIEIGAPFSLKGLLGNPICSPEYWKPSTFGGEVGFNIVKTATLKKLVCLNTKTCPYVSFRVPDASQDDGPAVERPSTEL

[2] = Inhibition of Saccharomyces alpha-glucosidase using p-nitrophenyl-alpha-D-glucopyranoside as substrate assessed as substrate hydrolysis incubated for 15 mins by spectrophotometer analysis; set-up: species or system Saccharomyces sp.
Jurkat = experiment: Anticancer activity against human Jurkat T cells assessed as cell growth inhibition; assay type: functional, cell-based
HT-29 = experiment: Anticancer activity against human HT-29 cells assessed as cell growth inhibition; assay type: functional, cell-based
Enterococcus = experiment: Antibacterial activity against vancomycin resistant Enterococcus incubated for 24 hrs by broth microdilution method; assay type: functional
B16 [3] = experiment: Anticancer activity against mouse B16 cells assessed as cell growth inhibition; assay type: functional, cell-based
B16 [4] = experiment: Antitumor activity against mouse B16 cells implanted in mouse assessed as inhibition of lung tumor formation at 5 mg/kg, po measured after 10 days relative to control; assay type: functional; set-up: scale not given: the % may be the effect or the level left; conditions: time 10 day
Histoplasma capsulatum = experiment: Antifungal activity against Histoplasma capsulatum; assay type: functional
Blastomyces dermatitidis = experiment: Antifungal activity against Blastomyces dermatitidis; assay type: functional

**Q.** With `C[C@@H]1CC[C@@H](c2ccccc2)N2[C@@H](O)[C@@](C)(Sc3ccccc3)CC[C@@H]12` as the compound, how does the IC50 (U-937) read?
**A.** 2500 nM

**Q.** With `CC(=O)NC[C@H]1CN(c2ccc(N3CCOCC3)c(F)c2)C(=O)O1` [LINEZOLID] as the compound, how does the MIC (Staphylococcus aureus) read?
**A.** 1 µg/mL (≈ 2.96 µM)

**Q.** Which results are given for `C/C=C/[S+]([O-])SC1SC(O)C(C)C1C` (centres undefined)?
**A.** IC50 [1]: 52 nM; IC50 [2]: 710 nM

**Q.** Which EC50 (Jurkat) does the source give for `COc1ccc(C[N+]2=CC3(CCC2)CSC2(C=[N+](Cc4ccc(OC)cc4)CCC2)C3)cc1` (centres undefined) here?
**A.** 1800 nM

**Q.** What about the EC50 (HT-29) of the same compound?
**A.** 2800 nM

**Q.** Which IC50 (U-937) does the source give for `C#CCC1(SC)CCC2C(C)CCC(c3ccccc3)N2C1O` (racemic) here?
**A.** 5000 nM

**Q.** Which IC50 (U-937) does the source give for `C[C@@H]1CC[C@@H](c2ccoc2)N2[C@H]1CC[C@@]1(CS[C@]3(CC[C@H]4[C@H](C)CC[C@@H](c5ccoc5)N4[C@@H]3O)C1)[C@H]2O` here?
**A.** 2500 nM

**Q.** For `CN[C@H](CC(C)C)C(=O)N[C@H]1C(=O)N[C@@H](CC(N)=O)C(=O)N[C@H]2C(=O)N[C@H]3C(=O)N[C@H](C(=O)N[C@H](C(=O)O)c4cc(O)cc(O)c4-c4cc3ccc4O)[C@H](O)c3ccc(c(Cl)c3)Oc3cc2cc(c3O[C@@H]2O[C@H](CO)[C@@H](O)[C@H](O)[C@H]2O[C@H]2C[C@](C)(N)[C@H](O)[C@H](C)O2)Oc2ccc(cc2Cl)[C@H]1O` [VANCOMYCIN], which MIC (Enterococcus) is on record?
**A.** 0.5 µg/mL (≈ 0.345 µM)

**Q.** With `CSC1(SC)CCC2C(C)CCC(c3ccccc3)N2C1O` (racemic) as the compound, how does the IC50 (U-937) read?
**A.** 5000 nM

**Q.** For `C[C@@H]1CC[C@@H](c2ccoc2)N2C[C@@]3(CC[C@@H]12)CS[C@]1(CC[C@H]2[C@H](C)CC[C@@H](c4ccoc4)N2[C@@H]1O)C3` [6-HYDROXYTHIONUPHLUTINE B], which IC50 (B16 [3]) is on record?
**A.** 360 nM

**Q.** For `C[C@@H]1CC[C@@H](c2ccoc2)N2[C@H]1CC[C@]1(CS[C@]3(CC[C@H]4[C@H](C)CC[C@@H](c5ccoc5)N4[C@@H]3O)C1)[C@H]2O`, which IC50 (U-937) is on record?
**A.** 1250 nM

**Q.** For `C[C@H]1CC[C@H](c2ccoc2)N2[C@@H]1CC[C@@]1(CS[C@@]3(CC[C@@H]4[C@@H](C)CC[C@H](c5ccoc5)N4[C@H]3O)C1)[C@@H]2O`, which IC50 (U-937) is on record?
**A.** 2500 nM

**Q.** For `C1=[N+](CCCCc2ccccc2)CCCC12CCCO2` (centres undefined), which EC50 (Jurkat) is on record?
**A.** 38000 nM

**Q.** What about the EC50 (HT-29) of the same compound?
**A.** 87000 nM

**Q.** Which IC50 (U-937) does the source give for `COc1ccc([C@H]2CC[C@H](C)[C@H]3CC[C@](C)(SC)[C@H](O)N23)cc1` here?
**A.** 5000 nM

**Q.** For `CSC1(SC)CC[C@@H]2[C@@H](C)CC[C@H](c3ccc(F)cc3)N2[C@H]1O`, which IC50 (U-937) is on record?
**A.** 5000 nM

**Q.** With `CSC1(SC)CC[C@H]2[C@H](C)CC[C@@H](c3ccccc3)N2[C@@H]1O` as the compound, how does the IC50 (U-937) read?
**A.** 10000 nM

**Q.** With `C[C@H]1CC[C@H](c2ccoc2)N2[C@@H]1CC[C@@]1(CS[C@]3(CC[C@@H]4[C@@H](C)CC[C@H](c5ccoc5)N4[C@H]3O)C1)[C@@H]2O` as the compound, how does the IC50 (U-937) read?
**A.** 2500 nM

**Q.** Which IC50 (B16 [3]) does the source give for `C[C@@H]1CC[C@@H](c2ccoc2)N2C[C@@]3(CC[C@@H]12)CS[C@@]1(CC[C@H]2[C@H](C)CC[C@@H](c4ccoc4)N2[C@@H]1O)C3` here?
**A.** 29 nM

**Q.** What about the IC50 (U-937) of the same compound?
**A.** 5000 nM

**Q.** And the Activity (B16 [4])?
**A.** >90%

**Q.** With `CC1CCC(c2ccoc2)N2C1CCC1(CSC3(CCC4C(C)CCC(c5ccoc5)N4C3O)C1)C2O` (centres undefined) as the compound, how does the EC50 (Jurkat) read?
**A.** 263 nM

**Q.** What about the EC50 (HT-29) of the same compound?
**A.** 547 nM

**Q.** For `C[C@H]1CC[C@H](c2ccccc2)N2[C@@H]1CC[C@@](C)(Sc1ccccc1)[C@@H]2O`, which IC50 (U-937) is on record?
**A.** 2500 nM

**Q.** Which IC50 (U-937) does the source give for `C[C@H]1CC[C@H](c2ccoc2)N2[C@@H]1CC[C@]1(CS[C@]3(CC[C@@H]4[C@@H](C)CC[C@H](c5ccoc5)N4[C@H]3O)C1)[C@@H]2O` here?
**A.** 5000 nM

**Q.** Which results are given for `CCn1cc(C(=O)O)c(=O)c2cc(F)c(N3CCNCC3)cc21` [NORFLOXACIN]?
**A.** MIC (Enterococcus): 4 µg/mL (≈ 12.5 µM); MIC (Staphylococcus aureus): 0.5 µg/mL (≈ 1.57 µM)

**Q.** Which IC50 (U-937) does the source give for `CSC1(SC)CC[C@@H]2[C@@H](C)CC[C@H](c3ccccc3)N2[C@H]1O` here?
**A.** 1250 nM

**Q.** For `C[C@H]1CC[C@H](c2ccoc2)N2C[C@]3(CC[C@H]12)CS[C@]1(CC[C@@H]2[C@@H](C)CC[C@H](c4ccoc4)N2[C@H]1O)C3`, which IC50 (U-937) is on record?
**A.** 5000 nM

**Q.** Which IC50 (U-937) does the source give for `C#CC[C@]1(SC)CC[C@@H]2[C@@H](C)CC[C@H](c3ccccc3)N2[C@H]1O` here?
**A.** 2500 nM

**Q.** With `CSC1(C)CCC2C(C)CCC(c3ccccc3)N2C1O` (racemic) as the compound, how does the IC50 (U-937) read?
**A.** 3000 nM

**Q.** Which results are given for `C1=[N+](CCCCc2ccccc2)CCCC12CCCS2` (centres undefined)?
**A.** EC50 (Jurkat): 6300 nM; EC50 (HT-29): 12000 nM

**Q.** For `CS[C@@]1(C)CC[C@@H]2[C@@H](C)CC[C@H](c3ccc(F)cc3)N2[C@H]1O`, which IC50 (U-937) is on record?
**A.** 5000 nM

**Q.** With `C=CC[C@]1(SC)CC[C@@H]2[C@@H](C)CC[C@H](c3ccc(F)cc3)N2[C@H]1O` as the compound, how does the IC50 (U-937) read?
**A.** 5000 nM

**Q.** With `C[C@H]1CC[C@H](c2ccoc2)N2[C@@H]1CC[C@]1(CS[C@@]3(CC[C@@H]4[C@@H](C)CC[C@H](c5ccoc5)N4[C@H]3O)C1)[C@@H]2O` as the compound, how does the IC50 (U-937) read?
**A.** 5000 nM

**Q.** With `Cc1onc(-c2ccccc2)c1C(=O)N[C@@H]1C(=O)N2[C@@H]1SC(C)(C)[C@@H]2C(=O)O` [OXACILLIN] as the compound, how does the MIC (Staphylococcus aureus) read?
**A.** 0.06 µg/mL (≈ 0.149 µM)

**Q.** With `C[C@@H]1CC[C@@H](c2ccoc2)N2[C@H]1CC[C@]1(CS[C@@]3(CC[C@H]4[C@H](C)CC[C@@H](c5ccoc5)N4[C@@H]3O)C1)[C@H]2O` as the compound, how does the IC50 (U-937) read?
**A.** 2500 nM

**Q.** What does the source list for `C1=[N+](CCCCc2ccccc2)CCCC12CCC2`?
**A.** EC50 (Jurkat): 9600 nM; EC50 (HT-29): 43000 nM

**Q.** Which IC50 (U-937) does the source give for `COc1ccc([C@H]2CC[C@H](C)[C@H]3CCC(SC)(SC)[C@H](O)N23)cc1` here?
**A.** 5000 nM

**Q.** For `C=C1C=[N+](CCCCc2ccccc2)CCC1`, which EC50 (Jurkat) is on record?
**A.** 17000 nM

**Q.** And the EC50 (HT-29)?
**A.** 45000 nM

**Q.** Which IC50 (U-937) does the source give for `CC1CCC(c2ccccc2)N2C1CCC(C)(Sc1ccccc1)C2O` (racemic) here?
**A.** 5000 nM

**Q.** Which EC50 (Jurkat) does the source give for `FC(F)(F)c1ccc(C[N+]2=CC3(CCC2)CSC2(C=[N+](Cc4ccc(C(F)(F)F)cc4)CCC2)C3)cc1` (centres undefined) here?
**A.** 1800 nM

**Q.** And the EC50 (HT-29)?
**A.** 2400 nM

**Q.** With `C[C@H]1CC[C@H](c2ccccc2)N2[C@@H]1CC[C@](C)(Sc1ccccc1)[C@@H]2O` as the compound, how does the IC50 (U-937) read?
**A.** 5000 nM

**Q.** For `COc1ccc([C@H]2CC[C@H](C)[C@H]3CC[C@@](C)(SC)[C@H](O)N23)cc1`, which IC50 (U-937) is on record?
**A.** 1250 nM

**Q.** For `NCC[C@H](O)C(=O)N[C@@H]1C[C@H](N)[C@@H](O[C@H]2O[C@H](CN)CC[C@H]2N)[C@H](O)[C@H]1O[C@H]1O[C@H](CO)[C@@H](O)[C@H](N)[C@H]1O` [ARBEKACIN], which MIC (Staphylococcus aureus) is on record?
**A.** 0.5 µg/mL (≈ 0.905 µM)

**Q.** With `C[C@@H]1CC[C@@H](c2ccoc2)N2[C@H]1CC[C@@]1(CS[C@@]3(CC[C@H]4[C@H](C)CC[C@@H](c5ccoc5)N4[C@@H]3O)C1)[C@H]2O` as the compound, how does the Activity (Histoplasma capsulatum) read?
**A.** 100 µg/mL

**Q.** And the IC50 (B16 [3])?
**A.** 87 nM

**Q.** What about the MIC (Enterococcus) of the same compound?
**A.** 2 µg/mL (≈ 3.8 µM)

**Q.** And the IC50 (U-937)?
**A.** 5000 nM

**Q.** What about the MIC (Staphylococcus aureus) of the same compound?
**A.** 1 µg/mL (≈ 1.9 µM)

**Q.** What about the Activity (Blastomyces dermatitidis) of the same compound?
**A.** 100 µg/mL

**Q.** For `CS[C@@]1(C)CC[C@@H]2[C@@H](C)CC[C@H](c3ccccc3)N2[C@H]1O`, which IC50 (U-937) is on record?
**A.** 5000 nM

**Q.** With `C1=[N+](Cc2ccccc2)CCCC12CSC1(C=[N+](Cc3ccccc3)CCC1)C2` (centres undefined) as the compound, how does the EC50 (Jurkat) read?
**A.** 1600 nM

**Q.** And the EC50 (HT-29)?
**A.** 2300 nM

**Q.** For `CS[C@]1(C)CC[C@@H]2[C@@H](C)CC[C@H](c3ccc(F)cc3)N2[C@H]1O`, which IC50 (U-937) is on record?
**A.** 1250 nM

**Q.** For `CS[C@]1(C)CC[C@@H]2[C@@H](C)CC[C@H](c3ccccc3)N2[C@H]1O`, which IC50 (U-937) is on record?
**A.** 625 nM

**Q.** For `C#CC[C@@]1(SC)CC[C@@H]2[C@@H](C)CC[C@H](c3ccccc3)N2[C@H]1O`, which IC50 (U-937) is on record?
**A.** 2500 nM

**Q.** For `C1=[N+](CCCCc2ccccc2)CCCC12CSC1(C=[N+](CCCCc3ccccc3)CCC1)C2` (centres undefined), which EC50 (Jurkat) is on record?
**A.** 1200 nM

**Q.** What about the EC50 (HT-29) of the same compound?
**A.** 2100 nM
